Measured values taken from BindingDB's records for patent US20250154134 (Wigen Biomedicine Technology (Shanghai), 2025).
pIC50: −log10 of the molar value.

molecular target: Focal adhesion kinase 1 (Homo sapiens, UniProt Q05397); test: Inhibitory Activity Assay
Protocol: A compound serially diluted with DMSO was mixed with a FAK recombinant protein. After the mixture was left to stand at room temperature for 10 min, a biotin-labeled TK substrate (TK) and ATP were added. […] The inhibition percentage and IC50 of the compound were calculated compared to the DMSO control group.

Focal adhesion kinase 1, sequence (Q05397 whole entry): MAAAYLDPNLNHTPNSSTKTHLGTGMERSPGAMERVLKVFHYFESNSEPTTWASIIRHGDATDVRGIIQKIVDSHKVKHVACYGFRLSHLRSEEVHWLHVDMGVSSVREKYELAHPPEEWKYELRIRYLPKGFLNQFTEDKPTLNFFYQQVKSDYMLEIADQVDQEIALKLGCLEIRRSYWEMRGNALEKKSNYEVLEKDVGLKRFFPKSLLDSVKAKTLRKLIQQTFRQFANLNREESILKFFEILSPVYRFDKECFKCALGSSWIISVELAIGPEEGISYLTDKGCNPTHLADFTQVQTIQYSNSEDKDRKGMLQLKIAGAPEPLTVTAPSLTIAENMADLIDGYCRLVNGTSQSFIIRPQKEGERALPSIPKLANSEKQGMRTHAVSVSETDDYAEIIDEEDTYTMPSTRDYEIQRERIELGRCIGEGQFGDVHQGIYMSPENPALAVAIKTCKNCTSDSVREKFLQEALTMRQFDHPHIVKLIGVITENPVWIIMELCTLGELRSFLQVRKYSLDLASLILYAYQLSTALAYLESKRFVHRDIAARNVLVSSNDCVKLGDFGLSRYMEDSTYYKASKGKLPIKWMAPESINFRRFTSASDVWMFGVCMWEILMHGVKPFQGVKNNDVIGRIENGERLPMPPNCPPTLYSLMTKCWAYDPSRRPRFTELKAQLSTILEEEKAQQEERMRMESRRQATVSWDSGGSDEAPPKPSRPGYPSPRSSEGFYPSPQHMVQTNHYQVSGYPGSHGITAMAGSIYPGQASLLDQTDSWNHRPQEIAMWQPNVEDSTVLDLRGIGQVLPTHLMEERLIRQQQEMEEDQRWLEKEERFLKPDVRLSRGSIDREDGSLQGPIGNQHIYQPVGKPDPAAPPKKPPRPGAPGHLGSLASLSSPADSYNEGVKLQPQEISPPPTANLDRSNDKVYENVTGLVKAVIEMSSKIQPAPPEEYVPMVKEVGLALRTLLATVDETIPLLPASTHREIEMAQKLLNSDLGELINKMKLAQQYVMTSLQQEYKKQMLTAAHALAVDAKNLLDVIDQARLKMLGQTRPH

Row | pIC50 | Structure (SMILES)
1 | > 7.70 | COc1cc(C(=O)NC2(C)CCN(C)CC2)ccc1Nc1ncc(Cl)c(Oc2cccc3c2C(=O)N(C)C32CC2)n1 [US20250154134, Compound 118]
2 | > 7.70 | COc1cc(C(=O)NC2CCN(C)CC2)ccc1Nc1ncc(C(F)(F)F)c(Oc2cccc3c2C(=O)N(C)C32CC2)n1 [US20250154134, Compound 3]
3 | > 7.70 | COc1cc(C(=O)NC2CCN(C)CC2)c(F)cc1Nc1ncc(Cl)c(Oc2cccc3c2C(=O)N(C)C32CCCC2)n1 [US20250154134, Compound 209]
4 | > 7.70 | COc1cc(C(=O)NC2CCNCC2)ccc1Nc1ncc(C(F)(F)F)c(Oc2cccc3c2C(=O)N(C)C32CC2)n1 [US20250154134, Compound 35]
